Measured values taken from patent US8865741B2, “Aminoindane compounds and use thereof in treating pain” (Asana Biosciences, LLC, priority 2011, dated 2014).

What was measured:
[1] = tested on: Male Sprague Dawley (SD) rats; test: In vivo assay of mechanical nociception (rat pinch model, perisciatic injection); details: for Average Time of Analgesia: test compound 0.5%, lidocaine 2%, total injection 100 μL, perisciatic
[2] = tested on: sodium channel in hTRPV1-N1E115 cells; test: FLIPR membrane potential assay of sodium channel response in hTRPV1-N1E115 cells, with (47° C.) or without (25° C.) heat activation of hTRPV1; type: cell-based; details: for hTRPV1-N1E Nav 0.1 mM (% inhibition) 25° C. / hTRPV1-N1E Nav 1 mM (% inhibition) 25° C.: 25° C. (no heat activation of hTRPV1); for hTRPV1-N1E Nav 0.1 mM (% inhibition) 47° C. / hTRPV1-N1E Nav 1 mM (% inhibition) 47° C.: 47° C. (heat activation of hTRPV1); for IC50: class symbols, read-out: hTRPV1-N1E IC50 (μM) 47° C.
Description: In one embodiment, a modified FLIPR® (Fluorometric Imaging Plate Reader) based assay system was developed which is capable of discriminating between non-specific versus hTRPV1-mediated entry of test compounds. Advantageously, the assay system utilizes heat activated opening of hTRPV1 channels followed by an assessment of internal sodium channel block. The assay allows a permanently charged compound to selectively enter through opened hTRPV1 channels and that compound's potency in inhibiting sodium channels from the cytoplasm side of the same cell can be assessed and quantified.
The assay is readily performed in multi-well assay plates into which cells in growth media are added and incubated under conditions which permit the formation of a confluent monolayer over a period of hours prior to the start of the assay. Conventional culture media and conditions may be utilized. Duplicate cell assay plates are prepared for each experiment.
The spent media from the cell seeded plates is removed on the day of the assay and replaced with Membrane potential Dye-Blue (Molecular Devices). The dye was prepared in assay buffer following manufacturer's instructions. The dye-loaded plate is incubated at room temperature (about 25° C.) for about 30 minutes in order to pre-load the cells with dye. Optionally, the cells may be loaded with the dye simultaneously with adding the test compounds.
The test compounds are diluted in the Assay Buffer and added to each well of a specific 384-well ‘compound plate’, which serves as a source plate for compound addition using the FLIPR® platform. The concentration of compounds in the compound-plate was adjusted to achieve the desired final concentration when added to the cells in the ‘cell-plate’. After completion of the dye incubation period, the dye loaded cell-plates and the compound source plates are inserted into the FLIPR® Tetra™ device with a 384 FLIPR® tip box (Molecular Devices, Inc.) according to manufacturer's instructions. The compounds are robotically added to the dye loaded cell-plates using software integral to the FLIPR® Tetra™ instrument.
Immediately following compound addition, hTRPV1 is activated, in one of the duplicate cell plates, by heating. Specifically, entire multi-well plate containing the compound-cells mixture is incubated at 47° C. for 10 minutes, after which they are returned to room temperature (about 25° C.) for a further 30 minutes. Heat activation of hTRPV1 was omitted from the replicate cell plate which was simply maintained at room temperature for the entire 40 minutes.
A membrane potential response is elicited in the dye- and compound-loaded cells by the addition of veratridine which is a known sodium channel ‘agonist’. As illustrated in an example herein, an agonist plate containing veratridine (Sigma) is prepared in advance and is inserted into suitable devices such as, e.g., the FLIPR® TETRA® device for a “2nd addition” as instructed by the manufacturer. The concentration of veratridine in the ‘agonist plate’ was adjusted to achieve a final concentration of 100 μM when added to the cells in the cell-plate. Final concentrations of veratridine greater or lesser than 100 μM may also be used but the signal measured by the FLIPR®^Tetra™ device or another suitable device may vary accordingly.
The exposure of the cells in the cell-plate to veratridine induces sodium channels in the cells to open and the resulting ion flux produces a membrane potential depolarization that is detected as a fluorescence signal by the FLIPR® ^Tetra™ Device. The activity of test compounds is determined by their ability to attenuate the veratridine-induced fluorescence signal, the most promising compounds are those that show an enhanced activity in the heat-activated cell plate over the non-heat-activated cell plate. […]

Row | Compound | IC50 ([2]; 47° C.) [µM] | duration of anti-nociception effect ([1]; 100 μL injection volume, 0.5% compound with 2% lidocaine (Table 8)) | Average Time of Analgesia [1] [h] | hTRPV1-N1E Nav 0.1 mM (% inhibition) 25° C. ([2]; 0.1 mM) [%] | hTRPV1-N1E Nav 0.1 mM (% inhibition) 47° C. ([2]; 0.1 mM) | hTRPV1-N1E Nav 1 mM (% inhibition) 25° C. [2] | hTRPV1-N1E Nav 1 mM (% inhibition) 47° C. [2] | hTRPV1-N1E Nav 0.1 mM (% inhibition) 25° C., DMSO ([2]; 0.1 mM, DMSO, 25° C.) [%] | hTRPV1-N1E Nav 0.1 mM (% inhibition) 47° C., DMSO ([2]; 0.1 mM, DMSO, 47° C.)
1 | CC[N+]1(CC)CCCCC1CCN(c1ccc(C)cc1)C1Cc2ccccc2C1.[I-] (stereo not shown) [Example 23, 1,1-Diethyl-2-[2-((indan-2-yl)(4-methylphenyl)amino)ethyl]piperidinium iodide] | 1 to 10 | – | 2 | 19.7 | 89.6 (N = 2) % | Insoluble | Insoluble | – | –
2 | Cc1cccc(N(CCC2CCCC[N+]2(C)C)C2Cc3ccccc3C2)n1.[Br-] (stereo not shown) [Example 48, 1,1-Dimethyl-2-[2-((indan-2-yl)(6-methylpyridine-2-yl)amino)ethyl]piperidinium bromide] | 10 to 100 | – | – | 29.6 | – | – | – | – | –
3 | C[N+]1(C)CCCC[C@H]1CN(c1ccccc1)C1Cc2ccccc2C1 [Example 32, (S)-1,1-Dimethyl-2-[((indan-2-yl)(phenyl)amino)methyl]piperidinium iodide] | 10 to 100 | – | – | – | – | – | – | – | –
4 | CCC[N+]1(CCC)CCCC[C@@H]1CCN(c1ccccc1)C1Cc2ccccc2C1.[I-] [Example 12, (R)-1,1-Dipropyl-2-[2-((indan-2-yl)(phenyl)amino)ethyl]piperidinium iodide] | – | – | – | – | – | – | – | 49 | 87 (N = 4, DMSO) %
5 | C[N+]1(C)CCCCC1CCN(c1ccc2c(c1)OCCO2)C1Cc2ccccc2C1.[I-] (stereo not shown) [Example 42, 1,1-dimethyl-2-[2-((2,3-dihydrobenzo[b][1,4]dioxin-6-yl)(indan-2-yl)amino)ethyl]piperidinium iodide] | – | – | – | 0 | 64.9 (N = 2) % | – | – | – | –
6 | Cc1ccccc1N(CCC1CC[N+](C)(C)CC1)C1Cc2ccccc2C1.[I-] [Example 45, 1,1-Dimethyl-4-[2-((indan-2-yl)(2-methylphenyl)amino)ethyl]piperidinium iodide] | – | – | – | 23.1 | 83.3 (N = 2) % | – | – | – | –
7 | Cc1ccc(N(CCC2CCCC[N+]2(C)C)C2Cc3ccccc3C2)cc1.[I-] (stereo not shown) [Example 22, 1,1-Dimethyl-2-[2-((indan-2-yl)(4-methylphenyl)amino)ethyl]piperidinium iodide] | 10 to 100 | – | – | 8.7 | 62.7 (N = 2) % | 48 (N = 2) % | 69.9 (N = 2) % | – | –
8 | C[N+]1(C)CCCCC1CCN(c1nccs1)C1Cc2ccccc2C1.[I-] (stereo not shown) [Example 39, 1,1-dimethyl-2-[2-((indan-2-yl)(thiazol-2-yl)amino)ethyl]piperidinium iodide] | – | – | – | 10.6 | 11.3 (N = 2) % | 31.3 (N = 2) % | 62.4 (N = 2) % | – | –
9 | C[N+]1(C)CCCCC1CCN(c1ncccn1)C1Cc2ccccc2C1.[I-] (stereo not shown) [Example 38, 1,1-dimethyl-2-[2-((indan-2-yl)(pyrimidine-2-yl)amino)ethyl]piperidinium iodide] | – | – | – | 25.9 | 37.5 (N = 2) % | 46.6 (N = 2) % | 70.4 (N = 2) % | – | –
10 | C[N+]1(C)CCCC1CN(c1ccccc1)C1Cc2ccccc2C1.[I-] (stereo not shown) [Example 8, 1,1-dimethyl-2-[((indan-2-yl)(phenyl)amino)methyl]pyrrolidinium iodide] | – | – | – | 6.5 | 22.7 (N = 2) % | 39.9 (N = 2) % | 69.5 (N = 2) % | – | –
11 | C[N+]1(C)CCCCC1CN(c1ccc(F)cc1)C1Cc2ccccc2C1.[I-] (stereo not shown) [Example 28, 1,1-Dimethyl-2-[((4-fluorophenyl)(indan-2-yl)amino)methyl]piperidinium iodide] | – | – | – | 30.2 | 43.7 (N = 2) % | 61.8 (N = 2) % | 86.6 (N = 2) % | – | –
12 | C[N+]1(C)CCCC[C@@H]1CN(c1ccccc1)C1Cc2ccccc2C1 [Example 33, (R)-1,1-Dimethyl-2-[((indan-2-yl)(phenyl)amino)methyl]piperidinium iodide] | 10 to 100 | – | – | – | – | – | – | – | –
13 | Cc1ccccc1N(CCC1CC[N+](C)(C)CC1)C1Cc2ccccc2C1.[Br-] [Example 40, 1,1-dimethyl-4-[2-((indan-2-yl)(2-methylphenyl)amino)ethyl]piperidinium bromide] | 10 to 100 | – | – | 34.3 | – | – | – | – | –
14 | Cc1ccccc1N(CCC1CCCC[N+]1(C)C)C1Cc2ccccc2C1 (stereo not shown) [Example 52, 1,1-Dimethyl-2-[2-((indan-2-yl)(2-methylphenyl)amino)ethyl]piperidinium bromide] | 10 to 100 | – | – | – | – | – | – | – | –

The next lines start with results.

Row | IC50 ([2]; 47° C.) [µM] | Compound | duration of anti-nociception effect ([1]; 100 μL injection volume, 0.5% compound with 2% lidocaine (Table 8)) | Average Time of Analgesia [1] [h] | hTRPV1-N1E Nav 0.1 mM (% inhibition) 25° C. ([2]; 0.1 mM) [%] | hTRPV1-N1E Nav 0.1 mM (% inhibition) 47° C. ([2]; 0.1 mM) | hTRPV1-N1E Nav 1 mM (% inhibition) 25° C. [2] | hTRPV1-N1E Nav 1 mM (% inhibition) 47° C. [2] | hTRPV1-N1E Nav 0.1 mM (% inhibition) 25° C., DMSO ([2]; 0.1 mM, DMSO, 25° C.) [%] | hTRPV1-N1E Nav 0.1 mM (% inhibition) 47° C., DMSO ([2]; 0.1 mM, DMSO, 47° C.)
15 | 10 to 100 | CC[N+]1(CC)CCCCC1CCN(c1ccccc1F)C1Cc2ccccc2C1.[I-] (stereo not shown) [Example 16, 1,1-Diethyl-2-[2-((2-fluorophenyl)(indan-2-yl)amino)ethyl]piperidinium iodide] | up to 6 hours | 6 | 0 | 92.9 (N = 2) % | Insoluble | Insoluble | – | –
16 | 10 to 100 | CC[N+]1(CC)CCCCC1CCN(c1cccc(C)c1)C1Cc2ccccc2C1.[I-] (stereo not shown) [Example 21, 1,1-Diethyl-2-[2-((indan-2-yl)(3-methylphenyl)amino)ethyl]piperidinium iodide] | – | – | 44.7 | 80.2 (N = 3) % | 58.2 (N = 3) % | 64.3 (N = 3) % | – | –
17 | 10 to 100 | [Br-].c1ccc(N(CCC2CCCC[N+]23CCCC3)C2Cc3ccccc3C2)cc1 (stereo not shown) [Example 20, 6-[2-((Indan-2-yl)(phenyl)amino)ethyl]-5-azoniaspiro[4.5]decane bromide] | – | – | 11.2 | 94.8 (N = 3) % | 0 (N = 3) % | 48.9 (N = 3) % | – | –
18 | 10 to 100 | CC[N+]1(CC)CCCCC1CCN(c1ccc(F)cc1)C1Cc2ccccc2C1.[I-] (stereo not shown) [Example 18, 1,1-diethyl-2-[2-((4-fluorophenyl)(indan-2-yl)amino)ethyl]piperidinium iodide] | – | – | 0 | 86.9 (N = 3) % | 0 (N = 3) % | 38.2 (N = 3) % | – | –
19 | 1 to 10 | CC[N+]1(CC)CCCCC1CCN(c1ccccc1C)C1Cc2ccccc2C1.[I-] (stereo not shown) [Example 25, 1,1-Diethyl-2-[2-((indan-2-yl)(2-methylphenyl)amino)ethyl]piperidinium iodide] | – | – | 26.4 | 89.6 (N = 2) % | Insoluble | Insoluble | – | –
20 | 1 to 10 | Cc1ccccc1N(CC[C@H]1CCCC[N+]1(C)C)C1Cc2ccccc2C1 [Example 51, (R)-1,1-Dimethyl-2-[2-((indan-2-yl)(2-methylphenyl)amino)ethyl]piperidinium chloride] | – | – | – | – | – | – | – | –
21 | 10 to 100 | CC[N+]1(CC)CCCC[C@H]1CCN(c1ccccc1)C1Cc2ccccc2C1.[Br-] [Example 49, (S)-1,1-Diethyl-2-[2-((indan-2-yl)(phenyl)amino)ethyl]piperidinium bromide] | – | – | 22.2 | – | – | – | – | –
